Experimental data taken from ChEMBL document CHEMBL3085731, “Novel water-soluble prodrugs of acyclovir cleavable by the dipeptidyl-peptidase IV (DPP IV/CD26) enzyme” (Eur J Med Chem, 2013).
In brackets after ≈: the same amount, converted by molar mass. Residues, ends and D or L forms follow the SMILES beside them. *: point of attachment. X1 = O=c1[nH]c(N*)nc2c1ncn2COCCO

Tests used:
[1] = system: Human alphaherpesvirus 1; assay: Antiviral activity against thymidine kinase-deficient ACV-resistant Herpes simplex virus 1 KOS infected in HEL cells assessed as inhibition of virus-induced cytopathicity; assay type: functional, organism-based; conditions: Human alphaherpesvirus 1, KOS
[2] = Chemical stability of the compound in sodium phosphate buffer at pH 3.2 after 6 hrs; assay type: physicochemical; conditions: pH 3.2, 6 h
[3] = system: Human alphaherpesvirus 2; assay: Antiviral activity against Herpes simplex virus 2 G infected in HEL cells assessed as inhibition of virus-induced cytopathicity; assay type: functional, organism-based; conditions: Human alphaherpesvirus 2, strain G
[4] = system: Human alphaherpesvirus 1; assay: Antiviral activity against Herpes simplex virus 1 KOS infected in HEL cells assessed as inhibition of virus-induced cytopathicity; assay type: functional, organism-based; conditions: Human alphaherpesvirus 1, KOS
[5] = Prodrug conversion in PBS buffer assessed as ACV formation at 50 uM after 24 hrs by HPLC analysis; assay type: ADME
[6] = Solubility of the compound in deionized water at pH 5.5 after overnight incubation by HPLC analysis; assay type: physicochemical
[7] = target: T1, Dipeptidyl peptidase 4 (Homo sapiens, UniProt P27487); assay: Prodrug conversion assessed as human dipeptidyl peptidase 4-mediated Val-ACV formation at 50 uM after 24 hrs by HPLC analysis; assay type: ADME; conditions: isolated protein
[8] = target: T1, Dipeptidyl peptidase 4; assay: Prodrug conversion assessed as dipeptidyl peptidase 4-mediated ACV formation in human serum at 50 uM after 1 hr by HPLC analysis; assay type: ADME
[9] = target: T1, Dipeptidyl peptidase 4; assay: Prodrug conversion assessed as dipeptidyl peptidase 4-mediated ACV formation in human serum at 50 uM after 24 hrs by HPLC analysis; assay type: ADME
[10] = Oral bioavailability in human; assay type: ADME, organism-based; conditions: in vivo
[11] = target: Dipeptidyl peptidase 4 (Bos taurus, UniProt P81425); assay: Prodrug conversion assessed as dipeptidyl peptidase 4-mediated ACV formation in bovine serum at 50 uM after 2 hrs by HPLC analysis; assay type: ADME; conditions: cattle
[12] = target: T1, Dipeptidyl peptidase 4; assay: Prodrug conversion assessed as dipeptidyl peptidase 4-mediated ACV formation in human serum at 50 uM after 2 hrs by HPLC analysis; assay type: ADME
[13] = Prodrug conversion in PBS buffer assessed as ACV formation at 50 uM after 2 hrs by HPLC analysis; assay type: ADME

T1 sequence (P27487 whole entry): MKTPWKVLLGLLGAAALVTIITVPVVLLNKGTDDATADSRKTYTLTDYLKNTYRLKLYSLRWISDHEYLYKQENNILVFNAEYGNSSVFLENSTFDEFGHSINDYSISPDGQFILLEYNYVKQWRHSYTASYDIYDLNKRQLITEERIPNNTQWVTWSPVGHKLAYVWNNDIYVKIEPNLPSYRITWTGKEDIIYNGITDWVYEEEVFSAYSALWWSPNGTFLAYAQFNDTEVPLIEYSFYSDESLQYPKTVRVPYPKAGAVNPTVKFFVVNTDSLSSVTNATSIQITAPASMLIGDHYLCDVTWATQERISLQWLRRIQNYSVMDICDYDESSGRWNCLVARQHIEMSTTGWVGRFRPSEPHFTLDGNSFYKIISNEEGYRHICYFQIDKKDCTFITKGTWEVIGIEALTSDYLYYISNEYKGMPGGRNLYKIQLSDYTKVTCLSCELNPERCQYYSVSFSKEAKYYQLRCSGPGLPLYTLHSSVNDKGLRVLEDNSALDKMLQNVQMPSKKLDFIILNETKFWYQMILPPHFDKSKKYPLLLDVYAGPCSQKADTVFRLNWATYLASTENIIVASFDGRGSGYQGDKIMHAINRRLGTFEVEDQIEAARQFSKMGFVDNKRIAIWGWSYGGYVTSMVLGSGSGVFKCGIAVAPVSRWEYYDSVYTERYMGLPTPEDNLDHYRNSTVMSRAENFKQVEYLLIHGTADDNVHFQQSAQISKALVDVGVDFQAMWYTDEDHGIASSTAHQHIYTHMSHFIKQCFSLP
Dipeptidyl peptidase 4 (Bos taurus, UniProt P81425), sequence (P81425 whole entry): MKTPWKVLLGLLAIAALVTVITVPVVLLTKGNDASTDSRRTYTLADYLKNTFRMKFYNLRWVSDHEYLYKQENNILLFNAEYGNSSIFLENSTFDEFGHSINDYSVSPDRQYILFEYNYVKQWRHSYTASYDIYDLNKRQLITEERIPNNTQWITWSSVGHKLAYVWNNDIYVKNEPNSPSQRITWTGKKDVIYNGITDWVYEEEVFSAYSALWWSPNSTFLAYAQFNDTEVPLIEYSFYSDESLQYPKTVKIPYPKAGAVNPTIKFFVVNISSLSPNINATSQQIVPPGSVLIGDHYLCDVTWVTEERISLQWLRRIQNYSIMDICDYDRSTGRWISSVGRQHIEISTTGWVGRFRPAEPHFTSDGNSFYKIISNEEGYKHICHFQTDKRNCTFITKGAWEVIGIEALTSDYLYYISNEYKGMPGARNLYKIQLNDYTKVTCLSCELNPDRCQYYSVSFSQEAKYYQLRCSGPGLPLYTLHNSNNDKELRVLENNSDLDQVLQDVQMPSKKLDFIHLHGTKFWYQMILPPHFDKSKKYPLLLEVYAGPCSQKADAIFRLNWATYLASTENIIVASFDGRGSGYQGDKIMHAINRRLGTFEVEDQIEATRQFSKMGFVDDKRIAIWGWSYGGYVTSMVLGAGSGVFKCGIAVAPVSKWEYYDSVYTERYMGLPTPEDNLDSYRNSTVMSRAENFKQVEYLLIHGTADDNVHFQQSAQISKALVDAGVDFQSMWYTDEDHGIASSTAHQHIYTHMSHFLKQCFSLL

SMILES	EC50 [1] [µM]	Stability [2]	EC50 [3] [µM]	EC50 [4] [µM]	Drug metabolism [5]	solubility [6] [mg/mL]	Drug metabolism [7]	Drug metabolism [8]	Drug metabolism [9]	bioavailability [10] [%]	Drug metabolism [11]	Drug metabolism [12]	Drug metabolism [13]
CC(C)[C@H](N)C(=O)N1CCC[C@H]1C(=O)N[C@H](C(=O)OCCOCn1cnc2c(=O)[nH]c(N)nc21)C(C)C	32	Stable	1.6	0.6	Not Active	12.2 (≈ 23.4 mM)	Active	–	–	–	–	–	–
CC(C)[C@H](N)C(=O)N1CCC[C@H]1C(=O)N[C@H](C(=O)N1CCC[C@H]1C(=O)Nc1nc2c(ncn2COCCO)c(=O)[nH]1)C(C)C (H-VPVP-X1)	73	Stable	4.9	1.8	Active	22.9 (≈ 37 mM)	–	Active	Active	–	–	–	–
Nc1nc2c(ncn2COCCO)c(=O)[nH]1 [ACYCLOVIR]	18	–	0.5	–	–	1.29 (≈ 5.73 mM)	–	–	–	10	–	–	–
CC(C)[C@H](N)C(=O)OCCOCn1cnc2c(=O)[nH]c(N)nc21 [VALACYCLOVIR]	–	–	–	–	–	–	–	–	–	–	Active	Active	Active
